Data as given in ChEMBL document CHEMBL1255534, “Indoloditerpenes from an algicolous isolate of Aspergillus oryzae” (Bioorg Med Chem Lett, 2010).
Active and inactive are the calls of the source. The calls are words filed in the database; no cut-off is given here.

Key:
[1] = Toxicity in Artemia salina assessed as lethal rate at 100 ug/mL; format: organism-based; details: in vivo, read-out: Activity
Fusarium oxysporum = test: Antifungal activity against Fusarium oxysporum at 30 ug/ml by agar diffusion test; format: functional, organism-based
Escherichia coli = test: Antibacterial activity against Escherichia coli at 30 ug/ml by agar diffusion test; format: functional
Colletotrichum lagenaria = test: Antifungal activity against Colletotrichum lagenarium at 30 ug/ml by agar diffusion test; format: functional, organism-based

SMILES	mortality at 100 ug/mL [1] [%]	Activity (Fusarium oxysporum)	diameter of the inhibition zone (DIZ) (Escherichia coli)	Activity (Colletotrichum lagenaria)	zone of inhibition at 30 µg/mL (Escherichia coli; read-out: DIZ) [mm]
CC(C)=C[C@H]1C[C@]2(C)[C@H](CC[C@@]3(C)[C@H]2CC[C@H]2Cc4c([nH]c5ccccc45)[C@@]23C)O1	74.2	inactive	inactive	inactive	–
C/C=C1\[C@H]2C=C(C)C[C@]1(N)c1ccc(=O)[nH]c1C2	–	inactive	inactive	–	–
CC(C)=C[C@H]1C[C@]2(C)[C@H](CC[C@@]3(C)[C@H]2CC[C@H]2CC(=O)c4ccccc4NC(=O)[C@@]23C)O1 [ASPORYZIN A]	61.9	inactive	inactive	inactive	–
CC(C)=C[C@H]1C[C@@]2(C)[C@@H]3CC[C@H]4CC5(O)c6ccccc6N5C(=O)[C@@H]4[C@@]3(C)CC[C@@H]2O1 (stereo partly specified) [ASPORYZIN B]	42.9	inactive	inactive	inactive	–
CC(C)(O)/C=C/C[C@]1(C)[C@@H](O)CC[C@@]2(C)[C@H]1CC[C@H]1Cc3c([nH]c4ccccc34)[C@@]12C [ASPORYZIN C]	32.8	inactive	–	inactive	8.3
C=C1[C@H](Cc2c[nH]c3ccccc23)CC[C@H]2[C@](C)(CCC=C(C)C)[C@@H](O)CC[C@]12C [EMENIVEOL]	31.4	inactive	inactive	inactive	–
CC(C)=CCC[C@]1(C)[C@@H](O)CC[C@@]2(C)[C@H]1CC[C@H]1Cc3c([nH]c4ccccc34)[C@@]12C [EMINDOLE SB]	60.3	inactive	inactive	inactive	–
